These results are taken from patent publication US20190241535A1, “3-SUBSTITUTED CARBONYL-NAPHTHO[2,3-B]FURANE DERIVATIVE OR PHARMACEUTICALLY ACCEPTABLE SALT THEREOF” (Boston Biomedical, Inc., priority 2014, published 2019).

One data set is described as follows: Test 3: solubility test. The class given is physicochemical. As to conditions: kinetic from dmso stock, 1% DMSO, HPLC. The protocol: Each 15 μL of each test sample (10 mM DMSO solution) was dispensed into 4 Utubes on a 96 well rack. Then, each sample was evaporated to dryness with a rotary evaporator. 3 μL of DMSO was added to each dried sample to be re-dissolved. And, 300 μL of pH 7.4 buffer was added to the 2 wells and 300 μL of pH 1.2 buffer was added to the other 2 wells. After shaking each sample solution, the samples were still stood. Then, each sample solution was centrifuged to remove insoluble matter, and 100 μL of the supernatant was picked up on a 96 well plate. Separately, 2 μL of each test sample (10 mM DMSO solution) was dispensed on a 96 well plate, and diluted with 198 μL of 50% acetonitrile to prepare each 100 μM standard solution. Further, the 100 μM standard solution was diluted with 50% acetonitrile to prepare each 10 μM standard solution. The above test samples for the solubility test and the two kinds of the standard samples were analyzed with a HPLC. The solubility of each test sample was calculated as an area ratio per the standard solutions.

The subject of data set [1] is HCT-116 cell. The experiment in a line: Test 2: inhibition of forming cancer cell sphere (Sphere IC50). Format: cell-based. Conditions: Homo sapiens, 96 h, ultra-low attachment plate, serum-free sphere medium, 4 days, CellTiter-Glo. The protocol:
(§1) HCT-116 cell, HT-29 cell, and FaDu cell were obtained from the American Type Culture Collection (ATCC). HCT-116 cell and HT-29 cell were cultivated at 37° C. in the presence of 5% CO2 using McCoy's 5a medium containing 10% fetal bovine serum (FBS), and 1% penicillin/streptomycin; and FaDu cell was cultivated at 37° C. in the presence of 5% CO2 using MEM containing 10% FBS, 1% non-essential amino acid, 1% sodium pyruvate, and 1% penicillin/streptomycin. Each of HCT-116 cell, HT-29 cell, and FaDu cell was seeded on 384 Wells Black Clear Bottom Ultra-Low Attachment Microplate (Corning Cat. No. 3827) in 350-800 cells/well, with DMEM/F12 medium containing 2% B27 supplement (GIBCO), 20 ng/mL epidermal growth factor (EGF) (peprotech), 10 ng/mL basic fibroblast growth factor (bFGF) (peprotech), 5 μg/mL insulin (Sigma), and 1% penicillin/streptomycin. Each test sample was added thereto to adjust the final concentration thereof in DMSO to 0.1% and the test wells were incubated for 4 days. And then, the viable cell count of each sample was measured using CellTiter-Glo® Luminescent Cell Viability Assay (Promega), and the concentration to inhibit the cell growth in each test sample by 50% was calculated (Sphere IC50 Value;μM).
(In general: ATP-based viability assays read luminescence as a measure of living cells.)

Data set [2] relates to HT-29 cell. The description is as above. Conditions: Homo sapiens, 96 h, ultra-low attachment plate, serum-free sphere medium, 4 days, CellTiter-Glo. The class given is cell-based. The protocol: as §1
The test system of data set [3] is FaDu cell. The data set is described as above. The class given is cell-based. Conditions: Homo sapiens, 96 h, ultra-low attachment plate, serum-free sphere medium, 4 days, CellTiter-Glo. The protocol:
as §1

Data set [4] in a line: Test 5: concentration of the test compounds in tumor. As to conditions: mouse, po, 25 mg/kg, 25 mg/kg po. The class given is in vivo. The protocol: Administration method: The test compound scaled to a given weight was suspended in 0.5% methylcellulose to prepare an administration solution. A mouse was weighed, and the administration solution was orally administered to the mouse depending on its weight.
The picked tumor was put into a tube, and 1 mL of MeOH containing an internal standard was added to the tube. The internal standard used herein was bezafibrate, the concentration of which was 200 nM. The mixture was homogenized with an electric homogenizer to prepare a tumor extract. And, a blank tumor extract was prepared with a tumor derived from an un-treated animal in the same manner. The 100 μg/mL standard solution was diluted with MeOH to prepare a sample for calibration curve which has the desired concentration. To 50 μL of the sample for calibration curve was added 50 μL of the blank tumor extract to prepare a sample for tumor calibration curve. To 50 μL of the tumor extract was added 50 μL of MeOH to prepare a sample for analyzing tumor. Each 5 μL of the samples was analyzed with an LC-MS. The calibration curve was prepared based on the peak ratio of MS peak area of the test sample per that of the internal standard, and the concentration of the sample for tumor calibration curve. The concentration/weight of the test compound in each sample was calculated based on the peak ratio of each sample, and the calibration curve. Then, the obtained weight was divided by the weight in tumor to calculate the concentration of the test compound in tumor.

Data set [5] has as its system HCT-116 cell. Kind of data set: Test 1: growth inhibition in cancer cell (Bulk IC50). Format: cell-based. As to conditions: Homo sapiens, 96 h, adherent culture, incubated 4 days, CellTiter-Glo. The protocol: (§2) HCT-116 cell, HT-29 cell, and FaDu cell were obtained from the American Type Culture Collection (ATCC). HCT-116 cell and HT-29 cell were cultivated at 37° C. in the presence of 5% CO2 using McCoy's 5a medium containing 10% fetal bovine serum (FBS), and 1% penicillin/streptomycin; and FaDu cell was cultivated at 37° C. in the presence of 5% CO2 using MEM containing 10% FBS, 1% non-essential amino acid, 1% sodium pyruvate, and 1% penicillin/streptomycin. Each cell was seeded on μClear-plate black 384 wells (Greiner bio-one Cat. No. 781091) in 300-600 cells/well, and then each test sample was added thereto to adjust the final concentration thereof in DMSO to 0.1% and the test wells were incubated for 4 days. And then, the viable cell count of each sample was measured using CellTiter-Glo® Luminescent Cell Viability Assay (Promega), and the concentration to inhibit the cell growth in each test sample by 50% was calculated (Bulk IC50 Value; μM).

The test system of data set [6] is HT-29 cell. The description is as above. The class given is cell-based. As to conditions: Homo sapiens, 96 h, adherent culture, incubated 4 days, CellTiter-Glo. The protocol: as §2
The subject of data set [7] is FaDu cell. The data set is described as above. The class given is cell-based. As to conditions: Homo sapiens, 96 h, adherent culture, incubated 4 days, CellTiter-Glo. The protocol:
as §2

The mark [8] stands for this setting: animal 1, read-out: Concentration in tumor, animal 1.
Setting [9] is: animal 2, read-out: Concentration in tumor, animal 2.

The structures appear in SMILES notation. Converted amounts (≈) assume the structure as drawn. Like-named read-outs stand apart in the source and are kept apart here.

Take `CN1CCN(C(=O)c2c(C(F)(F)F)oc3c2C(=O)c2ccccc2C3=O)CC1` [Example 8, 3-(4-Methylpiperazine-1-carbonyl)-2-(trifluoromethyl)naphtho[2,3-b]furan-4,9-dione]: the solubility (commonly the concentration that dissolves in the medium under given conditions) was 138 µg/mL (≈ 352 µM) in the data set “Test 3: solubility test” (aqueous buffer, pH 7.4 buffer, read-out: Solubility pH 7.4) and 160 µg/mL (≈ 408 µM) in the data set “Test 3: solubility test” (simulated gastric fluid, pH 1.2 buffer, read-out: Solubility pH 1.2). Further, the concentration for half-maximal inhibition (IC50) (commonly the midpoint of a concentration-inhibition curve) was determined as 530 nM in the data set on HCT-116 cell [1]; 640 nM in the data set with HT-29 cell [2]; 500 nM with FaDu cell [3]; 530 nM with HCT-116 cell [5]; 640 nM in the data set with HT-29 cell [6]; 500 nM in the data set on FaDu cell [7]. Further, the concentration at 2 hr in data set [4] (setting [8]) amounted to 498 ng/mL; in data set [4] (setting [9]) it was 260 ng/mL; in data set [4] (animal 3, read-out: Concentration in tumor, animal 3), 47 ng/mL; in data set [4] (mean of 3, read-out: Concentration in tumor, mean), 268 ng/mL. Further, the concentration at 6 hr in data set [4] (setting [8]) is 329 ng/mL; in data set [4] (setting [9]), 157 ng/mL.
